Consider two molecules from patent USRE47193E1, “Selectively substituted quinoline compounds” (EISAI R&D MANAGEMENT CO., LTD., priority 2013, dated 2019).

Entries after “also recorded” stand apart in the source; their conditions may differ.

The test system of this test is Pristane DBA/1 lupus disease model. As to the kind of experiment: Pristane: DBA/1 lupus disease model. Format: in vivo, mouse. To be noted: for auto-antibody specificities (titers): Pristane model, particularly robust impact on anti-RiboP titers. As to the method:
FIG. 3A through FIG. 3E show results of testing compound ER-899742 in the Pristane: DBA/1 strain lupus disease model. Figure Legend: Female DBA/1 mice at 9 weeks of age were given an intraperitoneal injection of 0.5 ml pristane or PBS. At 9 weeks post-pristane animals were bled for auto-antibody titers. Once-a-day oral dosing with Vehicle (Veh; 0.5% methyl-cellulose) or 33 mg/kg, 100 mg/kg, or 300 mg/kg of ER-899742 was begun 10 weeks after pristane injection and continued for 13 weeks of treatment. Mice were euthanized after 13 weeks of compound treatment, and anti-dsDNA (FIG. 3A), anti-Sm/nRNP (FIG. 3B), anti-histone (FIG. 3C) and anti-RiboP (FIG. 3D) titers were measured in blood plasma samples by ELISA (statistical significance of treatment versus vehicle determined by ANOVA with Dunnett's post-test). (FIG. 3E) The expression of IFN-regulated genes in whole blood was measured by a qPCR panel after 13 weeks of treatment with 300 mg/kg of ER-899742, and an IFN gene signature score was calculated (see Pharmacology Materials and Methods section for details regarding IFN score calculation).
FIG. 5A through FIG. 5D show results of testing ER-899464 in the Pristane disease model in the same experiment as that shown in FIG. 3A through FIG. 3E. Figure Legend: Mice were euthanized after 13 weeks of compound treatment, and anti-dsDNA (FIG. 5A), anti-Sm/nRNP (FIG. 5B), anti-histone (FIG. 5C), and anti-RiboP (FIG. 5D) titers were measured in blood plasma samples by ELISA (statistical significance of treatment versus vehicle determined by ANOVA with Dunnett's post-test).
FIG. 7A through FIG. 7G show the effect of dosing with ER-899742 in Pristane-induced disease in DBA/1J mice. Figure Legend: Female DBA/1 mice at 9 weeks of age were given an intraperitoneal injection of 0.5 ml pristane or PBS. At 10 weeks post-pristane animals were bled for autoantibody titers. Once-a-day oral dosing with Vehicle (Veh; 0.5% methyl-cellulose) or 33 mg/kg, or 300 mg/kg of ER-899742 was begun 11 weeks after pristane injection and continued for 14 weeks of treatment. Mice were euthanized after 14 weeks of compound treatment, and anti-dsDNA (FIG. 7A), anti-RiboP (FIG. 7B), anti-Sm/nRNP (FIG. 7C), and anti-histone (FIG. 7D) titers were measured in blood plasma samples by ELISA (statistical significance of treatment versus vehicle determined by ANOVA with Dunnett's post-test). The same plasma was used to measure total IgG titers by ELISA at the end of dosing (FIG. 7E). […] Pristane-treated mice in this experiment developed arthritis, with swollen joints in the rear paws. Arthritis scores were assigned according to severity, each paw was scored on a scale of 0-4 based on signs of swelling and inflammation. Scores were summed for the two hind paws assessed on each animal, and graphed in FIG. 7F with statistical assessment as for ELISA titers above.
FIG. 8 contains the result of treating for a month with ER-899742 in Pristane-induced disease in DBA/1J mice with advanced disease, after development of high levels of autoantibody. Figure Legend: DBA/1J mice were injected i.p. with pristane at 10 weeks of age. Three months later anti-RiboP and anti-dsDNA titers were taken, and animals randomized into groups with matching mean titers. Groups were sacrificed after one, two or four weeks of oral dosing with ER-899742, and RiboP titers measured in serum.
Mouse Lupus Disease Models.
Mouse lupus disease model strains. Female NZBWF1/J mice were purchased from Jackson Labs (Bar Harbor, Me.), both of which manifest with spontaneous lupus disease. Female DBA/1 mice were purchased from Harlan Laboratories (Indianapolis, Ind.) and at the indicated ages given an intraperitoneal injection of 0.5 ml pristane (2,6,10,14-Tetramethylpentadecane; Sigma, St. Louis, Mo.) to chemically induce lupus disease or of 0.5 ml PBS to generate age-matched, non-diseased control mice.
Assessment of auto-antibody titers by ELISA. […]

Setting [1] is: 33 or 300 mg/kg QD oral, 14 weeks of treatment.

Regarding `C[C@@H]1CN(c2ccc(C#N)c3ncccc23)C[C@H](C(=O)N[C@H]2CNC[C@H]2F)O1.Cl` [ER-899742, (2R,6R)-4-(8-cyanoquinolin-5-yl)-N-[(3S,4R)-4-fluoropyrrolidin-3-yl]-6-methylmorpholine-2-carboxamide hydrochloride], the “auto-antibody specificities (titers)” value was “suppressed various auto-antibody specificities”. Under setting [1], the “autoantibody against dsDNA and RiboP” value was “Control of autoantibody against dsDNA and RiboP was seen”; the “total IgG titers” value is listed as “minimal changes in overall IgG level”. Moreover, the “arthritis scores (hind paws)” value (Pristane-treated DBA/1 mice, 33 or 300 mg/kg, 14 weeks, hydrochloride) was “Dose-dependent statistically significant suppression was observed; also recorded: Control of arthritis”. Also, the “reversal of anti-RiboP or DNA titers” value (advanced disease, after 28 days of oral dosing) is reported as “no statistically significant reversal”.
`C[C@@H]1CN(c2ccc(C#N)c3ncccc23)C[C@H](C(=O)NC2CCN(C)CC2)O1` [ER-899464, (2R,6R)-4-(8-cyanoquinolin-5-yl)-6-methyl-N-(1-methylpiperidin-4-yl)morpholine-2-carboxamide]: the “auto-antibody specificities (titers)” value is given as “suppressed various auto-antibody specificities”.
